# Test results taken from ChEMBL document CHEMBL1139483, “Inhibitors of tripeptidyl peptidase II. 3. Derivation of butabindide by successive structure optimizations leading to a potential general approach to designing exopeptidase inhibitors” (J Med Chem, 2005).
# Where a SMILES comes first, the peptide text is derived from it. [ ]: non-standard residue; d: D form. The star is where a group is joined. Pip = O=C(O)[C@@H]1CCCCN1; Nle = CCCC[C@H](N)C(=O)O; βNA = c1ccc2cc(N*)ccc2c1; Aze = O=C(O)[C@@H]1CCN1; Nva = CCC[C@H](N)C(=O)O; Abu = CC[C@H](N)C(=O)O; Aib = CC(C)(N)C(=O)O; NHBn = c1ccc(CN*)cc1; NHBu = CCCCN*
# Biological target: Tripeptidyl-peptidase 2 (Rattus norvegicus, UniProt Q64560)
# Sequence (Q64560 whole entry): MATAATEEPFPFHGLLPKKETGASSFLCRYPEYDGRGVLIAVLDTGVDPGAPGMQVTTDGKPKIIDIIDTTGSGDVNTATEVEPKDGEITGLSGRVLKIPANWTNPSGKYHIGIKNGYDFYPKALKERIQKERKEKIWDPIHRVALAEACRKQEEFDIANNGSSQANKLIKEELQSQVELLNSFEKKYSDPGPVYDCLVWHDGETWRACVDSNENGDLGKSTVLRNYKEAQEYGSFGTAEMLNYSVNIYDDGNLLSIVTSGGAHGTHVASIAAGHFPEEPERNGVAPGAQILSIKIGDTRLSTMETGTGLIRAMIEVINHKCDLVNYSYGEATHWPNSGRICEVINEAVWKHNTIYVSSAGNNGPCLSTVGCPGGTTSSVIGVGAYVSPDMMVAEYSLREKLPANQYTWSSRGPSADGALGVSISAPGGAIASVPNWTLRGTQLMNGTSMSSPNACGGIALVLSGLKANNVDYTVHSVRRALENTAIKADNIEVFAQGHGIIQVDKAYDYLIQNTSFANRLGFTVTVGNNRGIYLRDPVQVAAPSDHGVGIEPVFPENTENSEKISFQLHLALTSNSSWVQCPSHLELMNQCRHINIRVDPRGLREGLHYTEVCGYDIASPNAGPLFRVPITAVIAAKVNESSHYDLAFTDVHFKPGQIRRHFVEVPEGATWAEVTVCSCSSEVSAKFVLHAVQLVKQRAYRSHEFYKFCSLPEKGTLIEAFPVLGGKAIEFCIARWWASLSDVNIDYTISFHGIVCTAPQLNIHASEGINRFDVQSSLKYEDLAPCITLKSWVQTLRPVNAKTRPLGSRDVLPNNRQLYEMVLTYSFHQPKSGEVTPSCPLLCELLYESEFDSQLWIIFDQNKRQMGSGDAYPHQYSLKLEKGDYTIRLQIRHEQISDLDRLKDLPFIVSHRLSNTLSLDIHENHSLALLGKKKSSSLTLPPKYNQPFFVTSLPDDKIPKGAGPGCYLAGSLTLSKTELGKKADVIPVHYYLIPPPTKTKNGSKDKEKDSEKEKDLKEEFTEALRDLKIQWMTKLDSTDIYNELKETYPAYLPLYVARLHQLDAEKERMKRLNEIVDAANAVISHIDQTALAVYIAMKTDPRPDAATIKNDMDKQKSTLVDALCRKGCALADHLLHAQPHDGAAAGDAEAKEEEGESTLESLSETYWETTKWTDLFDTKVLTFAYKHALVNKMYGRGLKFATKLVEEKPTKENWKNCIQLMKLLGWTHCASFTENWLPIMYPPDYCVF
# Test: Inhibition of TPPII in rat cerebral membrane
# Assay type: cell membranes
row,Structure (SMILES),Ki [µM]
1,CC[C@H](C)NC(=O)[C@@H]1CCCN1C(=O)[C@@H](N)CC,20
2,CCCCNC(=O)C1CCCCCN1C(=O)[C@@H](N)CC (stereo partly drawn),6
3,CCCCNC(=O)[C@@H]1CC(Cc2ccccc2)CN1C(=O)[C@@H](N)CC (stereo partly drawn),0.14
4,CCCCNC(=O)[C@H]1CCCN1C(=O)[C@@H](N)C(C)C,190
5,CC[C@@H](C)NC(=O)[C@@H]1CCCN1C(=O)[C@@H](N)CC,4.5
6,CC(C)[C@H](N)C(=O)N1CCC[C@H]1C(=O)NN1CCCCC1,57
7,NC(=O)[C@@H]1CCCN1C(=O)[C@@H](N)Cc1ccccc1 (H-Phe-Pro-NH2),71
8,CC(C)[C@H](N)C(=O)N1CCC[C@H]1C(=O)NCc1ccccc1 (H-Val-Pro-NHBn),3.3
9,CC(C)[C@H](N)C(=O)N1CCC[C@H]1C(=O)Nc1ccc2ccccc2c1 (H-Val-Pro-βNA),860
10,CCCCNC(=O)[C@@H]1CCCN1C(=O)[C@@H](N)CC (H-[Abu]-Pro-NHBu),0.08
11,CCCCNC(=O)[C@@H]1CCCCN1C(=O)[C@@H](N)CC (H-[Abu]-[Pip]-NHBu),35
12,CCCCNC(=O)[C@@H]1CCCN1C(=O)C(C)(C)N (H-[Aib]-Pro-NHBu),5

# Continued, values first:
row,Ki [µM],Structure (SMILES)
1,40,CC[C@H](N)C(=O)N1CCC[C@H](C(N)=O)C1
2,12,CC[C@H](N)C(=O)N1CCCC[C@@H]1C(N)=O
3,40,CC[C@H](N)C(=O)N1CSC[C@@H]1C(N)=O
4,2.1,C[C@H](N)C(=O)N1CCC[C@H]1C(N)=O (H-Ala-Pro-NH2)
5,4.3,CC[C@H](C)[C@H](N)C(=O)N1CCC[C@H]1C(N)=O (H-Ile-Pro-NH2)
6,2.1,CC(C)C[C@H](N)C(=O)N1CCC[C@H]1C(N)=O (H-Leu-Pro-NH2)
7,6,CC(C)[C@H](N)C(=O)N1CCC[C@H]1C(N)=O (H-Val-Pro-NH2)
8,0.57,CC[C@H](N)C(=O)N1CCC[C@H]1C(N)=O (H-[Abu]-Pro-NH2)
9,20,CC[C@H](N)C(=O)N1CC[C@H]1C(N)=O (H-[Abu]-[Aze]-NH2)
10,2,CCCC[C@H](N)C(=O)N1CCC[C@H]1C(N)=O (H-[Nle]-Pro-NH2)
11,1.6,CCC[C@H](N)C(=O)N1CCC[C@H]1C(N)=O (H-[Nva]-Pro-NH2)
